Data taken from patent publication US6573236B2, “Inhibiting MOG-antibody binding” (The Regents of the University of California, priority 1998, dated 2003).
Ends that are not written are not given here.

Legend:
[1] = test system: MOG- and MBP-specific autoantibodies in MS lesions; assay: Immunogold-labeled peptide staining of human MS CNS tissue; type: binding; settings: acute human MS lesions
Experimental: Immunogold labeling was performed on ultra-thin sections of frozen or fixed tissues. Gold conjugates were prepared of (1) three MOG peptides (amino acids [aa] 1-20, aa 21-40, and aa 41-60 of human MOG (SEQ ID NO:3)) with known encephalitogenic activity in marmosets; (2) one MOG peptide that has been shown not to be encephalitogenic in marmosets (aa 101-120); (3) one human myelin basic protein (MBP) peptide (aa 82-101) that is encephalitogenic in marmosets and immunodominant in humans with the DR2 haplotype; and, as a control, (4) a peptide of mouse serum albumin (MSA; aa 560-574). […] Immunoreactivity was detected on 1-μm epoxy sections of marmoset spinal cord tissue and active MS lesions. […]
(§1) As controls, sections were either pretreated with unlabeled encephalitogenic MOG peptides or MBP to block the reaction, reacted with unlabeled nonencephalitogenic MOG peptide (aa 101-120) before application of the gold conjugates, or treated with gold-labeled irrelevant antigens (histone or MSA) or irrelevant IgG (anti-goat). The specificity of the labeling with the gold conjugates of encephalitogenic MOG peptides was also assessed in western blots where the MOG protein was first reacted with immune marmoset serum. […]

[2] = test system: antigen-specific autoantibody in situ (marmoset EAE lesions); assay: Immunogold-labeled peptide staining of marmoset EAE CNS tissue sections; type: binding, C. jacchus marmoset; settings: conjugates 1:100, silver enhancement
Experimental: Immunogold labeling was performed on ultra-thin sections of frozen or fixed tissues. Gold conjugates were prepared of (1) three MOG peptides (amino acids [aa] 1-20, aa 21-40, and aa 41-60 of human MOG (SEQ ID NO:3)) with known encephalitogenic activity in marmosets; (2) one MOG peptide that has been shown not to be encephalitogenic in marmosets (aa 101-120); (3) one human myelin basic protein (MBP) peptide (aa 82-101) that is encephalitogenic in marmosets and immunodominant in humans with the DR2 haplotype; and, as a control, (4) a peptide of mouse serum albumin (MSA; aa 560-574). Peptides having human MOG subsequences were synthesized using standard Fmoc chemistry and purified (>95%) by HPLC (Research Genetics Inc., Huntsville, Ala.): MOG 1-20, MOG 21-40, […], MBP 82-101, and MSA 560-574. The gold conjugates were synthesized by using monosulfo-N-hydroxy succinimide-Nanogold labeling reagent (particle diameter, 1.4 nm), according to the manufacturer's instructions (Nanoprobes, Stonybrook, N.Y.), followed by extensive dialysis to remove unreacted peptide. Immunoreactivity was detected on 1-μm epoxy sections of marmoset spinal cord tissue and active MS lesions. For this, sections were etched with sodium ethoxide, equilibrated in PO4-buffered saline containing 0.05% Triton X-100, and blocked with 10% normal rabbit serum. Sections were incubated with peptide-immunogold conjugates (1:100 in buffer) for 2 hours at room temperature. After washing, detection was performed by using silver enhancement (Nanoprobes). Sections were counterstained with toluidine blue. […]
as §1

Substance	staining of vesiculated myelin networks by gold conjugate [1]	labeling of vesiculated myelin networks by gold conjugate [2]
MBP (aa 82-101): Nanogold conjugate of human myelin basic protein peptide aa 82-101 (PADPGSRPHLIRLFSRDAPG; also: Nanogold conjugate, attachment not given here)	to a lesser extent	failed to label
gold-conjugated MOG peptide (aa 21-40): Nanogold conjugate of human MOG peptide aa 21-40 (ELPCRISPGKNATGMEVGWY; also: Nanogold conjugate, attachment not given here)		Positive reactivity
MSA, aa 560-574: Nanogold conjugate of control peptide of mouse serum albumin aa 560-574 (KPKATAEQLKTVMDD; also: Nanogold conjugate, attachment not given here)	not	failed to label
